From US5747247A, “Spectroscopic helicase assay” (The Regents of The University of California, priority 1994, dated 1998)

Tests used:
[1] = tested on: E. coli helicase I, helicase II (uvrD), and rep proteins; conditions: George et al., cited from earlier work; for Ki: read-out: Ki for ATPase and helicase activities
[2] = tested on: helicase; conditions: other studies (refs 46-48); cited from earlier work
[3] = tested on: recBCD enzyme; test: Dye displacement fluorometric helicase assay (DNA unwinding followed by dye fluorescence); format: biochemical, E. coli; conditions: for Apparent rate of unwinding at which the dye titration levels off: 0.5 nM total recBCD, 2 uM SSB, plateau at ~150 nM for H33258 and TO and 375 nM for DAPI; for Apparent rate of unwinding at which the dye titration levels off / Vmax, observed rate of unwinding at saturating enzyme: 20° C.; for Increase of Vmax in absence of SSB protein relative to its presence: SSB protein omitted vs present; for Vmax, observed rate of unwinding: SSB protein omitted; for Vmax, observed rate of unwinding / Vmax, observed rate of unwinding at saturating enzyme: 250 nM DAPI, 100 nM H33258, 300 nM TO; for Vmax, observed rate of unwinding at saturating enzyme / Apparent energy of activation (Ea) of unwinding: with SSB protein; for Vmax, observed rate of unwinding at saturating enzyme: SSB assay gives 250±25; for Apparent energy of activation (Ea) of unwinding: Arrhenius plots from 20°, 25°, 32°, 37° C., SSB assay 9.7
Description: (§1) Fluorometric helicase assay: The standard reaction buffer consisted of 25 mM Tris-acetate (pH 7.5), 1 mM Mg(OAc)2, and 1 mM DTT. When SSB protein was included, it was present at a 3-fold molar excess, assuming a site size of 15 nucleotides/monomer under stoichiometric conditions. This corresponds to a protein concentration which is 20% of the DNA (nucleotide) concentration. The DNA substrate was BamHI-digested pBR322 DNA, at a concentration of 10 uM nucleotide (2.1 nM ends).
(§2) The reaction (350 ul total volume) contained standard buffer, linear pBR322 DNA, and the indicated concentration of recBCD enzyme. […] The fluorescence signal due to these components was zeroed out. The fluorophore (either SSB protein or dye) was then added, and the reaction was allowed to equilibrate to the indicated temperature. Unwinding was initiated by the addition of ATP to 3 mM final concentration. […] For SSB protein fluorescence measurements, the value for 100% unwinding was calculated as described previously (28, 41). For dye fluorescence experiments, the value for complete unwinding was obtained by subtracting the fluorescence in the presence of an equimolar amount of ssDNA (i.e., heat-denatured pBR322) (FssDNA) from the fluorescence at the start of the reaction (FdsDNA). The difference in these values (FdsDNA -FssDNA) was taken to be the maximum fluorescence change possible if all of the DNA molecules were fully unwound (Fexp). The observed fluorescence change (Fobs) was divided by this differ ence to obtain the extent of unwinding. Initial rates were then calculated as described previously (28).
(§3) Fluorescence measurements were carried out on a Shimadzu RF5000U spectrofluorophotometer. When the intrinsic fluorescence of SSB protein was measured, the excitation and emission wavelengths were set at 290 and 340 nm, respectively. The excitation and emission wavelengths for the various dyes were determined experimentally in the presence of dsDNA. For AO, these values were 487 and 510 nm; for DAPI, 345 and 467 nm; for EB, 546 and 590 nm; for EHD, 552 and 596 nm; for H33258, 344 and 487 nm; and for TO, 504 and 528 nm. When SSB protein fluorescence was monitored, the band widths were 1.5 and 10 nm for the excitation and emission slits, respectively; for all of the dye fluorescence experiments, these values were 5 and 10 nm, respectively.
To determine whether the presence of dyes affected the observed rate of unwinding, the reaction (including SSB protein) was performed at several concentrations of DAPI, H33258, and TO. The reactions were performed at 20° C. in standard buffer with 10 uM nucleotide (2.1 nM ends) linear pBR322 DNA, 2 uM SSB protein, 0.5 nM total (0.17 nM functional) recBCD enzyme, and the indicated concentration of dye. Unwinding was initiated by adding ATP to a final concentration of 3 mM. […] For each dye (DAPI (.circle-solid.), H33258 (o), or TO (.tangle-solidup.), the initial rate of unwinding was determined as described in the Experimental Procedures and is plotted in panel B as a function of dye concentration. Due to the lag behavior illustrated in panel A, the data at concentrations ≤100 nM are considered unreliable, as indicated by shading this portion of the graph.
In FIG. 4A, raw data from an experiment in which recBCD enzyme concentration was varied at a given concentration of TO are shown; SSB protein was included to allow comparison to previous results. From results such as these, using either DAPI, H33258, or TO, the data in FIG. 4B were generated. Unwinding was performed as in FIG. 3, except that the concentration of recBCD enzyme was varied, and a constant concentration of fluorophore (250 nM for DAPI; 100 nM for H33258; and 300 nM for TO) was used. In panel A, a portion of the raw data obtained with TO are shown. The observed rates of unwinding derived from such experiments are shown in panel B. DAPI, .circle-solid.; H33258, o; TO, .tangle-solidup.. […]

[4] = biological target: T1, recBCD enzyme (Escherichia coli, UniProt P04993+P07648+P08394); test: SSB protein fluorescence assay of DNA unwinding in presence of fluorescent dyes; format: biochemical, E. coli; conditions: for Rate of DNA unwinding: 20° C., 2 uM SSB protein, 0.5 nM total recBCD enzyme, none = 40.7 ± 4.1
T1 construct: made in house
T1 sequence (P07648 whole entry): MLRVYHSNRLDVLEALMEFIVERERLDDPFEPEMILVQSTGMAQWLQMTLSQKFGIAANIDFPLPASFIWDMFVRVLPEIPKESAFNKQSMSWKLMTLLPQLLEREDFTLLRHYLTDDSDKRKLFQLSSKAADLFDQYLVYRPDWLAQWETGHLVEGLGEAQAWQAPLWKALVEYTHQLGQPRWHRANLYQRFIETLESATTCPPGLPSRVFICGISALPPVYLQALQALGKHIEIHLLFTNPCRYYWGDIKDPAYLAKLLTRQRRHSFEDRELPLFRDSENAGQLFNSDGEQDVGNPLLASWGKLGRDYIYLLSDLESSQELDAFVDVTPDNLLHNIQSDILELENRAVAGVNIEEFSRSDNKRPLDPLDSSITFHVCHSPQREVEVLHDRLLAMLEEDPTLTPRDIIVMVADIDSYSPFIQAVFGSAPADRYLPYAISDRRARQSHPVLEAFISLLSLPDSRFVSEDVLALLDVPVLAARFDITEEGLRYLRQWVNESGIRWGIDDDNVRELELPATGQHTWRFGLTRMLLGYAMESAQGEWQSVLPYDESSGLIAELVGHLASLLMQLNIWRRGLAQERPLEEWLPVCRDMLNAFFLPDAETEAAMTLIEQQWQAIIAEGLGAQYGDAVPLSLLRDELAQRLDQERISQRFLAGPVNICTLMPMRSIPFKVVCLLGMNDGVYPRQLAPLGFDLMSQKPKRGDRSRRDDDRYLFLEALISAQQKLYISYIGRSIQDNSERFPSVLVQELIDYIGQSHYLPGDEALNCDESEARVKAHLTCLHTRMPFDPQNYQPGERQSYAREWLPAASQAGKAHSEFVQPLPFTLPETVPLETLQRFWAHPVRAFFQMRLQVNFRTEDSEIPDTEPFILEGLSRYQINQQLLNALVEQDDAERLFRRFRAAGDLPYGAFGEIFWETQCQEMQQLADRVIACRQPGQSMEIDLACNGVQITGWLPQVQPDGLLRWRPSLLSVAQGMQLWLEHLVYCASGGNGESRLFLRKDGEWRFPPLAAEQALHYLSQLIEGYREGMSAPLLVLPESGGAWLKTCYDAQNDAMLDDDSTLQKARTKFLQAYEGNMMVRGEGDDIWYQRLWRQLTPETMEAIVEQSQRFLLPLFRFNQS
T1 sequence (P04993 whole entry): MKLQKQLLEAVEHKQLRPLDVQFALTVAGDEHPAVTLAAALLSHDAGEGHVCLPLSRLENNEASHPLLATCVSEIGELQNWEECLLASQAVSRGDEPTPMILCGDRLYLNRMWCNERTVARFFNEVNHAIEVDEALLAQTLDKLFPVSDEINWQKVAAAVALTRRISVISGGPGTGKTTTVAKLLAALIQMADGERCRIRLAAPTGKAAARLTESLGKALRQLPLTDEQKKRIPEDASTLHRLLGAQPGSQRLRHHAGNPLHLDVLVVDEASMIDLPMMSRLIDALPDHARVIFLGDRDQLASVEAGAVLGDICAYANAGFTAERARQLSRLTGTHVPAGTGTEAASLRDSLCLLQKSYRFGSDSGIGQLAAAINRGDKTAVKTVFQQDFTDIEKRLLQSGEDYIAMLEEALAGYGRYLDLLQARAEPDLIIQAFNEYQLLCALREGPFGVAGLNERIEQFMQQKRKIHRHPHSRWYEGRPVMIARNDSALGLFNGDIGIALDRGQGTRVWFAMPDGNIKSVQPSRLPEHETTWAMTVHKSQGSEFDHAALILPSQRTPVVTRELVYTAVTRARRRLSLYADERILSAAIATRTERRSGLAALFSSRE
T1 sequence (P08394 whole entry): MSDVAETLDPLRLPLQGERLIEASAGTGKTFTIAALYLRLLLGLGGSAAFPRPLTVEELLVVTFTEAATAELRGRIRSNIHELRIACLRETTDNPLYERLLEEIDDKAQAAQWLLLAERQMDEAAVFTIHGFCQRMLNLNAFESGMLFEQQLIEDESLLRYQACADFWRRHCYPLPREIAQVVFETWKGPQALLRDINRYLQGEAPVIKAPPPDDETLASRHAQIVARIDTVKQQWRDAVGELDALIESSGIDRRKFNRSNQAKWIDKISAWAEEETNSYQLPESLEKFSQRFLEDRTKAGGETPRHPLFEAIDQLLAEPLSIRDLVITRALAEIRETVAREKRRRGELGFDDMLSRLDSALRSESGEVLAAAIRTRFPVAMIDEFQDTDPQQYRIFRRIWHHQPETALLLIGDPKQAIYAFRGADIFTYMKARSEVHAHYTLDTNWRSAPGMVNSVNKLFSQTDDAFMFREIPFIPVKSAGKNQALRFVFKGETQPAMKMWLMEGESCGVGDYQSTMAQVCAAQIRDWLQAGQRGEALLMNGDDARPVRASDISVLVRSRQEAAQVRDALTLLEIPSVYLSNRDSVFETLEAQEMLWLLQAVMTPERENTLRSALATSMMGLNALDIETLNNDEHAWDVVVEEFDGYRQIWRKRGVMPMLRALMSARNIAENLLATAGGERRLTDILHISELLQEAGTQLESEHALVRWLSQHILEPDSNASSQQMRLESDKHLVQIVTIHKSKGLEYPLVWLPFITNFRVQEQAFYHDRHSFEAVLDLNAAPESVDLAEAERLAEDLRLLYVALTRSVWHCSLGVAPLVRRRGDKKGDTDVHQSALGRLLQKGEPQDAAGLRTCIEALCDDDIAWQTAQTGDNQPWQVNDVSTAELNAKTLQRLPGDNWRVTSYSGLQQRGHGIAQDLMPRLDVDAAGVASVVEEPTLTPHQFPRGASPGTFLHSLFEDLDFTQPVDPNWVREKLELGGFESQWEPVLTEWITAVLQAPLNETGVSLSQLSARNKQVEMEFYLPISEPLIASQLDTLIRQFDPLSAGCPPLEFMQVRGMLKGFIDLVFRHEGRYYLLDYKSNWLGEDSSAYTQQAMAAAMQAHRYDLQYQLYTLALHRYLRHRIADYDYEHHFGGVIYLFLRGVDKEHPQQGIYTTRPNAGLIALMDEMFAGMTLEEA
Description: as §1, §2, §3
The unwinding reaction was performed at 20° C. in buffer containing 25 mM Tris-acetate (pH 7.5), 1 mM Mg(OAc)2, 3 mM ATP, 1 mM DTT, 10 uM nucleotide BamHI-digested pBR322 DNA, 2 uM SSB protein, 0.5 nM total (0.17 nM functional) recBCD enzyme, and the indicated concentrations of dye. SSB protein fluorescence was monitored.

SMILES | Ki [1] [µM] | Apparent rate of unwinding at which the dye titration levels off [3] | Increase of Vmax in absence of SSB protein relative to its presence [3] | Vmax, observed rate of unwinding [3] [nM bp/s] | Vmax, observed rate of unwinding at saturating enzyme [3] [nM bp/s] | Apparent energy of activation (Ea) of unwinding [3] [kcal/mol] | Rate of DNA unwinding ([4]; 100 nM dye) [nm bp/s] | Rate of DNA unwinding ([4]; 250 nM dye) [nm bp/s] | further results
N=C(N)c1ccc(-c2cc3ccc(C(=N)N)cc3[nH]2)cc1 | 1 to 10 |  |  |  |  |  |  |  | 
CN(C)c1ccc2cc3ccc(N(C)C)cc3nc2c1 [AO, acridine orange] | 1 to 10 |  |  |  |  |  |  |  | 
COc1c(O)c2c(c3cc(C(=O)N4CCc5c4c(O)c(OC)c4[nH]c(C(=O)N6CC7CC78C6=CC(=O)c6[nH]cc(C)c68)cc54)[nH]c13)CCN2C(N)=O (stereo not shown) [CC-1065] |  |  |  |  |  |  |  |  | Inhibition of helicase activity [2]: inhibition of helicase activity
CN1CCN(c2ccc3[nH]c(-c4ccc5[nH]c(-c6ccc(O)cc6)nc5c4)nc3c2)CC1 [H33258, Hoechst 33258] | 1 to 10 | 20-25 nM bp/s | 25-50% | 272±30 | 221±25 | 9.9 | 36.1 ± 4.5 | 35.5 ± 1.9 | Rate of unwinding at optimal dye concentration compared with SSB protein fluorescence assay ([3]; 400 nm DAPI, 300 nm H33258): within experimental error, equal to those obtained using the SSB protein fluorescence assay; Effect on observed rate of unwinding ([4]; dye at 100 or 250 nM, low enzyme concentration): does not affect the observed rate of unwinding
CN1C(=Cc2cc[n+](C)c3ccccc23)Sc2ccccc21 [TO, thiazole orange] |  | 20-25 nM bp/s | 25-50% | 330±25 | 211±15 | 9.7 | 35.6 ± 1.3 | 31.9 ± 0.7 | inhibition at 0.25 µM ([4]; read-out: Decrease of observed rate of unwinding): < 20%
O=C1c2c(O)ccc(O)c2C(=O)c2c(NCCNCCO)ccc(NCCNCCO)c21 [mitoxantrone] |  |  |  |  |  |  |  |  | Inhibition of helicases ([1]; dependent upon ligand and enzyme): potent but differential inhibition
